Results as given in patent US11986446B2, “Method of administration of gamma hydroxybutyrate with monocarboxylate transporters” (priority 2013, dated 2024).
Where two headings read alike, the source gives them in different places.

Experiments:
healthy male subjects = type: in vivo, human
healthy adults = experiment: Ibuprofen combined with Xyrem, PD (KSS and CDR System tasks); type: in vivo, human
Method: The effects of Ibuprofen were evaluated when combined with Xyrem® in a manner similar to the above. […] However, it was observed that renal excretion of Xyrem® doubled upon concomitant administration of Ibuprofen and Xyrem®.

[1] = Phase 1 crossover study of Xyrem with and without divalproex sodium, pharmacokinetics of GHB; type: in vivo, human
Excerpt: This study is designed to compare the pharmacokinetic (PK) and pharmacodynamic (PD) endpoints of Xyrem® with and without co-administration of divalproex sodium extended-release tablets. The crossover design allows within-subject comparisons of the PK and PD of Xyrem® dosed alone and in combination with divalproex sodium extended-release tablets. PD parameters include the following: Cognitive Drug Research (CDR) System tasks: Karolinska Sleepiness Scale (KSS), Simple Reaction Time (SRT), Digit Vigilance (DV), Choice Reaction Time (CRT), Tracking and Numeric Working Memory (NWM).
This was a Phase 1, randomized, double-blind, placebo-controlled, five-period, crossover study in healthy male subjects. The study was conducted in approximately 24 healthy subjects to ensure completion of 16 subjects. Following Screening and Baseline procedures, eligible subjects were randomized to receive Xyrem® and Xyrem® placebo in a crossover fashion in Periods 1 and 2; were dosed with divalproex sodium extended-release tablets for 10 consecutive days in Period 3; and while continuing to take divalproex sodium extended-release tablets, were randomized to receive Xyrem® and Xyrem® placebo in a crossover fashion in Periods 4 and 5 (Table 1).
Subjects were randomized to receive two 3 g doses of Xyrem® or Xyrem® placebo 4 hours apart in a crossover fashion at approximately 9 AM (first dose) and 1 PM (second dose) on Days 1 and 3. PK and PD parameters were evaluated during the 24 hours postdose.
Blood samples (4 mL) for sodium oxybate concentrations were collected at predose and at specified time-points up to 12 hours after the first dose of Xyrem® or Xyrem® placebo on Days 1 and 3. A PD Battery including the Karolinska Sleepiness Scale, Simple Reaction Time task, Digit Vigilance task, Choice Reaction Time task, Tracking task, and Numeric Working Memory task was administered at planned timepoints up to X hours after first dose (X hours after second dose), and safety were monitored at specified timepoints on Days 1 and 3 as well as throughout the periods.
All subjects received divalproex sodium extended-release tablets 1250 mg at approximately 8 AM on Days 5 through 14. Blood samples (4 mL) for valproic acid concentrations were collected before the divalproex sodium dose (to determine trough concentration for assessment of steady state) on Days 13 and 14. Safety was monitored at specified timepoints as well as throughout the period.
Subjects continued taking 1250 mg divalproex sodium extended-release tablets at approximately 8 AM on Days 15 through 18. Subjects were also randomized to receive two 3 g doses of Xyrem® or Xyrem® placebo in a crossover fashion at approximately 9 am (first dose) and 1 pm (second dose) on Days 15 and 18. The first dose of Xyrem® or Xyrem® placebo was taken approximately 1 hour after dosing with divalproex sodium extended-release tablets, and the second dose of Xyrem® or Xyrem® placebo was taken 4 hours after the first Xyrem®/Xyrem® placebo dose.
Blood samples (4 mL) to measure plasma sodium oxybate concentrations were collected at pre Xyrem®/Xyrem® placebo dose and at specified timepoints after the first Xyrem® or Xyrem® placebo dose on Days 15 and 18. Blood samples (4 mL) to measure plasma valproic acid concentrations were collected pre divalproex sodium dose and at specified timepoints after the dose of divalproex sodium extended-release tablets on Day 15 and 18. […]

[2] = alcohol dependent patients, oral administration; cited from earlier work
[3] = healthy volunteers; 12.5, 25, and 50 mg/kg; cited from earlier work
[4] = Ibuprofen combined with Xyrem, pharmacokinetics of GHB
[5] = GHB and divalproate concomitantly administered, statistically significant
[6] = GHB co-administered with valproate, attributed to GHB dehydrogenase inhibition

CCCC(CCC)C(=O)O [Divalproex sodium, 2-propylvaleric acid]
effects on cognitive function or sleepiness (healthy male subjects; in vivo): no consistent or notable effects on cognitive function or sleepiness

CC(C)Cc1ccc(C(C)C(=O)O)cc1 (centres unmarked) [Ibuprofen, iso-butyl-propanoic-phenolic acid]
Karolinska Sleepiness Scale, Simple Reaction Time, Digit Vigilance, Choice Reaction Time, Tracking and Numeric Working Memory (healthy adults): No differences were seen

O=C(O)CCCO [Xyrem®, sodium oxybate]
PD effects (healthy male subjects; GHB and divalproate concomitantly administered): more pronounced effects with concomitant administration
sleepiness, attention, working memory and tracking task performance (healthy male subjects; Xyrem alone, two 3 g doses, healthy volunteers): induces sleepiness and produces impairments to attention, working memory and performance on a tracking task
Tracking Distance from Target, change from baseline (healthy male subjects; Xyrem and divalproex sodium together (A+C) vs Xyrem alone (A), at 4 and 8 hours): statistically significant difference by a slightly delayed recovery for the combination
Numeric Working Memory Sensitivity Index, change from baseline (healthy male subjects; Xyrem and divalproex sodium together (A+C) vs Xyrem alone (A), at 4.5 through 8 hours): showed a difference
Continuity of Attention, change from baseline (healthy male subjects; Xyrem and divalproex sodium together (A+C) vs Xyrem alone (A), at 4 hours and 8 hours): slightly delayed recovery for the combination
Digit Vigilance Accuracy, change from baseline (healthy male subjects; Xyrem and divalproex sodium together vs Xyrem alone, at 2.5 and 4 hours): statistically reliably different greater impairment to Xyrem® alone
impairments over time (healthy male subjects; Xyrem dosed with divalproex sodium vs divalproex sodium alone (compared with Xyrem vs its placebo)): more consistent statistically significant impairments over time were seen with the combination
impairments to cognitive function and sleepiness (healthy male subjects; co-administration of Xyrem and divalproex vs Xyrem alone): greater impairments to cognitive function and sleepiness than were seen with Xyrem® alone
Numeric Working Memory Mean Reaction Time, change from baseline (healthy male subjects; in vivo): statistically significant differences at 2.5, 5 and 8 hours when the combination produced greater impairment
Simple Reaction Time Mean, change from baseline (healthy male subjects; in vivo): statistically reliably greater impairments than Xyrem® alone
renal clearance, increased [1, 5]: 30%
systemic exposure (plasma AUC), increased [1, 5]: 26%
AUC, increase [1, 6]: about 15%
Cmax, increase [1, 6]: about 15%
renal excretion of GHB, increase ([1]; upon co-administration of valproate): 30%
PD effects (healthy subjects; GHB and diclofenac concomitantly administered): significantly reduced
Digit Vigilance Accuracy, change from baseline (healthy subjects; Xyrem co-dosed with diclofenac vs Xyrem alone, at 1 and 2.5 h): significantly less impairment than Xyrem® alone
Power of Attention, change from baseline (healthy subjects; Xyrem co-dosed with diclofenac vs Xyrem alone, at 1 and 4.5 h): narrowly missed significance
Power of Attention, change from baseline (healthy subjects; Xyrem co-dosed with diclofenac vs Xyrem alone, at 0.5 h): significantly less impairment than Xyrem® alone
Power of Attention, change from baseline (healthy subjects; Xyrem co-dosed with diclofenac vs diclofenac alone, 6.5 h and 8 h): impairments at two timepoints compared to diclofenac alone which at 6.5 h was significant and a trend at 8 h
Choice Reaction Time Mean, impairments (healthy subjects; in vivo): significantly smaller than with Xyrem® alone
Digit Vigilance Mean Reaction Time, change from baseline (healthy subjects; in vivo): significantly less impairment than Xyrem® alone
absorption into and elimination from the systemic circulation [2]: fast processes
unchanged drug recovered in the urine [2]: Virtually no unchanged drug could be recovered in the urine
oral absorption and elimination processes, dose dependency [3]: capacity-limited though the degree of dose dependency was moderate
plasma levels, lower ([4]; GHB concomitantly administered with ibuprofen, statistically significant): ~5%
renal excretion of GHB ([4]; concomitant administration of ibuprofen): doubled

O=C(O)Cc1ccccc1Nc1c(Cl)cccc1Cl [diclofenac, 2-(2,6-dichloranilino) phenylacetic acid]
effect of diclofenac on the effects of Xyrem on Power of Attention, simple and choice reaction time (healthy subjects; co-dosed with Xyrem, during the hour after the first dose of Xyrem): significantly reduced the effects of the compound
effect on sleepiness or cognitive function (healthy subjects; diclofenac alone (50 mg qid + Xyrem placebo)): no effect on sleepiness or cognitive function
interaction on feelings of sleepiness (healthy subjects; diclofenac co-dosed with Xyrem): no interaction
protective effect on subjects ratings of alertness (healthy subjects; diclofenac co-dosed with Xyrem): not seen
impairments (interaction) over the hour following the first dose of Xyrem (healthy subjects; diclofenac co-dosed with Xyrem vs Xyrem alone): impairments being notably smaller
greater cognitive impairment or sleepiness on any measure (healthy subjects; in vivo): no evidence on any measure of greater cognitive impairment or sleepiness
